{
  "source": "patent US9226937B2",
  "about": "(priority 2011, dated 2016)",
  "key": {"fibrosarcoma cells": {"system": "fibrosarcoma cells", "details": "cited from earlier work"}, "rhabdomyosarcoma cells": {"system": "rhabdomyosarcoma cells", "details": "low dosage; cited from earlier work"}, "injected tumors": {"system": "injected tumors", "details": "mice with injected tumors; cited from earlier work"}, "SIRT1": {"biological_target": "T1, SIRT1 (Homo sapiens, UniProt Q96EB6)", "T1 construct": "purchased Biomol Research Laboratories, Inc. AK-555", "T1 sequence (Q96EB6 1-747)": "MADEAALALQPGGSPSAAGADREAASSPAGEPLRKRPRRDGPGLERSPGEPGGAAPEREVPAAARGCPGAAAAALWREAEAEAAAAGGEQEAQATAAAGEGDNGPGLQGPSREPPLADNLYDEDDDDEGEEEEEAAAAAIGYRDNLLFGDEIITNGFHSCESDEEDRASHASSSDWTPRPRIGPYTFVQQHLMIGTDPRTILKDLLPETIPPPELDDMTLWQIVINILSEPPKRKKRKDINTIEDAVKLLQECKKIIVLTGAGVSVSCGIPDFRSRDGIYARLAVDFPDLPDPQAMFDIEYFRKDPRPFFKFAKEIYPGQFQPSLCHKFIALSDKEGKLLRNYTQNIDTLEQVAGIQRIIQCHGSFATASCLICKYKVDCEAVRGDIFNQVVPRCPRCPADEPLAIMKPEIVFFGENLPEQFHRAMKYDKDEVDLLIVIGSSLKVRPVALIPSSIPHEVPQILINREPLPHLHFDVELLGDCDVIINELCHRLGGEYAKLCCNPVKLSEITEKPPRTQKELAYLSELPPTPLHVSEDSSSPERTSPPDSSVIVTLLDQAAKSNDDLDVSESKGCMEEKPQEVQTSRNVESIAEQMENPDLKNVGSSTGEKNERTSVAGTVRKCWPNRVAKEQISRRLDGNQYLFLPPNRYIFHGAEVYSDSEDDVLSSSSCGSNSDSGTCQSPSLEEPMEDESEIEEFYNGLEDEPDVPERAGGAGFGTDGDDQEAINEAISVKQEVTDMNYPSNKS", "assay": "SIRT1 Fluorescent Activity Assay/Drug Discovery Kit AK-555", "type": "biochemical", "details": "stored under ambient conditions", "source_text": "Small molecules in the form of resveratrol were obtained via ethanol extraction from Vitis vinifera and Polygonum cuspidatum. […] The extract was kept in a nitrogen environment and added to a mixture including approximately 25% by weight quercetin; 33% by weight lecithin; and 9% phytic acid (in the form of rice bran extract). […] The resulting slurry was placed into a capsule-filling machine. Individual dosages were encapsulated in gelatin capsules tinted with titanium oxide (Licaps® capsules available from Capsugel; Greenwood, S.C.; www.capsugel.com). The dosages were encapsulated in a substantially oxygen-free environment using a capsule-filling machine continually flushed with nitrogen (the Capsugel CFS 1000 Capsule Filling and Sealing Machine, available from Capsugel; Greenwood, S.C.; www.capsugel.com). […] These capsule samples were stored under ambient conditions for approximately eight months. The samples were tested for biological activity by determining whether each sample could activate sirtuin enzymes and, in particular, whether the samples stimulated SIRT1 catalytic activity. The samples were tested four months and eight months after encapsulation. Tests were performed using a SIRT1 Fluorescent Activity Assay/Drug Discovery Kit AK-555 (available from Biomol® Research Laboratories, Inc.; Plymouth Meeting, Pa.; www.biomol.com)."}, "cardiac stem cells": {"system": "cardiac stem cells", "details": "rats, cited from earlier work"}},
  "data": [
    {"smiles": "O=P(O)(O)O[C@H]1[C@H](OP(=O)(O)O)[C@@H](OP(=O)(O)O)[C@H](OP(=O)(O)O)[C@@H](OP(=O)(O)O)[C@H]1OP(=O)(O)O", "note": "[IP6, (2,3,4,5,6-pentaphosphonooxycyclohexyl)dihydrogen phosphate]", "values": [
      {"measurement": "survival of mice with injected fibrosarcoma cells", "setting": "fibrosarcoma cells", "result": "prolong their survival"},
      {"measurement": "growth of injected fibrosarcoma cells", "setting": "fibrosarcoma cells; mice", "result": "reduce the growth"},
      {"measurement": "suppression of growth of rhabdomyosarcoma cells", "setting": "rhabdomyosarcoma cells", "result": 50, "unit": "%"},
      {"measurement": "tumor size versus non-treated mice", "setting": "injected tumors", "result": 50, "unit": "times smaller"}
    ]},
    {"smiles": "O=c1c(O)c(-c2ccc(O)c(O)c2)oc2cc(O)cc(O)c12", "note": "[quercetin]", "values": [
      {"measurement": "biological activity of encapsulated quercetin (ability to stimulate SIRT1 activity compared to when no quercetin is present)", "setting": "SIRT1", "result": "maintained biological activity"}
    ]},
    {"smiles": "Oc1ccc(/C=C/c2cc(O)cc(O)c2)cc1", "note": "[resveratrol, 3,4′,5-trihydroxy-trans-stilbene]", "values": [
      {"measurement": "cardiac functional parameters (left ventricular ejection fraction, fractional shortening)", "setting": "cardiac stem cells; low dose (2.5 mg per kilogram) for two weeks prior to injection of cardiac stem cells", "result": "significantly improved"},
      {"measurement": "stem cell survival and proliferation", "setting": "cardiac stem cells; low dose for two weeks prior to injection of cardiac stem cells", "result": "enhanced stem cell survival and proliferation"}
    ]}
  ]
}
